Data published in ChEMBL document CHEMBL3991601, “The target landscape of clinical kinase drugs” (Science, 2017).
Active and inactive are the calls of the source.

Biological target: T1, ADP/ATP translocase 2 (Homo sapiens, UniProt P05141)
T1 sequence (P05141 whole entry): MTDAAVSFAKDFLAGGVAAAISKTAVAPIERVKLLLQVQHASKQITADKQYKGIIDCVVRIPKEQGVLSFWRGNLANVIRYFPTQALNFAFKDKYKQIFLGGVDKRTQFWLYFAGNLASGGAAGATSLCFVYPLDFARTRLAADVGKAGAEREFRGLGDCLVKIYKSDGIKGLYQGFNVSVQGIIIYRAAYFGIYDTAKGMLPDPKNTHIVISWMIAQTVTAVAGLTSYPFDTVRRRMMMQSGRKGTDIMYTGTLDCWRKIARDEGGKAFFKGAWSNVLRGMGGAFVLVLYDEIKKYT
Also: in the data inactive means no Kd found up to 30 µM.

Row | Compound | Kd
1 | CC(=O)Nc1cccc(-n2c(=O)n(C3CC3)c(=O)c3c(Nc4ccc(I)cc4F)n(C)c(=O)c(C)c32)c1 [TRAMETINIB] | > 30 µM (inactive)
2 | CN1N=C(N)c2cn([C@@H]3O[C@H](COP(=O)(O)O)[C@@H](O)[C@H]3O)c3ncnc1c23 [TRICIRIBINE PHOSPHATE] | > 30 µM (inactive)
3 | CC(C)Nc1cc(-c2c[nH]c(C(=O)N[C@H](CO)c3cccc(Cl)c3)c2)c(Cl)cn1 [ULIXERTINIB] | > 30 µM (inactive)
4 | CCn1c(=O)c(-c2cc[nH]n2)cc2c(C)nc(N)nc21 [VOXTALISIB] | > 30 µM (inactive)
5 | O=C(Nc1ccc(-c2ccnc(Nc3ccc(N4CCOCC4)cc3)n2)cc1)C1CCCN1 (stereo not given) [XL-019] | > 30 µM (inactive)

Biological target: Bone morphogenetic protein receptor type-1A (Homo sapiens, UniProt P36894)
Sequence (P36894 whole entry): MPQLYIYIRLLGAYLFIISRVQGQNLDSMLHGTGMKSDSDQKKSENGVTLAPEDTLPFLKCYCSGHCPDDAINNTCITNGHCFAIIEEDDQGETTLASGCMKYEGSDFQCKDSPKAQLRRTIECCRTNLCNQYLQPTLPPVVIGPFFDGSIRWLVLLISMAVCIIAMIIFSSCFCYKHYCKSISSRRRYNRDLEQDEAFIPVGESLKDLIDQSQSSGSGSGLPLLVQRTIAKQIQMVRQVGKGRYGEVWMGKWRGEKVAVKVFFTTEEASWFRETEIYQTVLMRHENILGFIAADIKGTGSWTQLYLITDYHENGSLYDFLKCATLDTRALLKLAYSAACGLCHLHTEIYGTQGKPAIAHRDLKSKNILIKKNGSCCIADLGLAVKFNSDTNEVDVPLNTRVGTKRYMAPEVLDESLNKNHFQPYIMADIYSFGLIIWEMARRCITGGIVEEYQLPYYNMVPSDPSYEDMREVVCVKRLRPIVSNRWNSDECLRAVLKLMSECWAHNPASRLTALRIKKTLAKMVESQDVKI

Row | Compound | Kd
6 | CC(=O)Nc1cccc(-n2c(=O)n(C3CC3)c(=O)c3c(Nc4ccc(I)cc4F)n(C)c(=O)c(C)c32)c1 [TRAMETINIB] | > 30 µM (inactive)
7 | CN1N=C(N)c2cn([C@@H]3O[C@H](COP(=O)(O)O)[C@@H](O)[C@H]3O)c3ncnc1c23 [TRICIRIBINE PHOSPHATE] | > 30 µM (inactive)
8 | CC(C)Nc1cc(-c2c[nH]c(C(=O)N[C@H](CO)c3cccc(Cl)c3)c2)c(Cl)cn1 [ULIXERTINIB] | > 30 µM (inactive)
9 | CCn1c(=O)c(-c2cc[nH]n2)cc2c(C)nc(N)nc21 [VOXTALISIB] | > 30 µM (inactive)
10 | O=C(Nc1ccc(-c2ccnc(Nc3ccc(N4CCOCC4)cc3)n2)cc1)C1CCCN1 (stereo not given) [XL-019] | > 30 µM (inactive)

Biological target: T2, Ribosyldihydronicotinamide dehydrogenase [quinone] (Homo sapiens, UniProt P16083)
T2 sequence (P16083 whole entry): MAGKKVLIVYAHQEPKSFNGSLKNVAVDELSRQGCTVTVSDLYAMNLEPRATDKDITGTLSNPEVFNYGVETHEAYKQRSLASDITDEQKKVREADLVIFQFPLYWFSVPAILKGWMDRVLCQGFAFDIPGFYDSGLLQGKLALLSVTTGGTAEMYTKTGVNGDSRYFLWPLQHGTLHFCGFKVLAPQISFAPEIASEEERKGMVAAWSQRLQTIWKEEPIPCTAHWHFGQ

Row | Compound | Kd
11 | CC(=O)Nc1cccc(-n2c(=O)n(C3CC3)c(=O)c3c(Nc4ccc(I)cc4F)n(C)c(=O)c(C)c32)c1 [TRAMETINIB] | > 30 µM (inactive)
12 | CN1N=C(N)c2cn([C@@H]3O[C@H](COP(=O)(O)O)[C@@H](O)[C@H]3O)c3ncnc1c23 [TRICIRIBINE PHOSPHATE] | > 30 µM (inactive)
13 | CC(C)Nc1cc(-c2c[nH]c(C(=O)N[C@H](CO)c3cccc(Cl)c3)c2)c(Cl)cn1 [ULIXERTINIB] | > 30 µM (inactive)
14 | CCn1c(=O)c(-c2cc[nH]n2)cc2c(C)nc(N)nc21 [VOXTALISIB] | > 30 µM (inactive)
15 | O=C(Nc1ccc(-c2ccnc(Nc3ccc(N4CCOCC4)cc3)n2)cc1)C1CCCN1 (stereo not given) [XL-019] | > 30 µM (inactive)

Biological target: Serine/threonine-protein kinase/endoribonuclease IRE1 (Homo sapiens, UniProt O75460)
Sequence (O75460 whole entry): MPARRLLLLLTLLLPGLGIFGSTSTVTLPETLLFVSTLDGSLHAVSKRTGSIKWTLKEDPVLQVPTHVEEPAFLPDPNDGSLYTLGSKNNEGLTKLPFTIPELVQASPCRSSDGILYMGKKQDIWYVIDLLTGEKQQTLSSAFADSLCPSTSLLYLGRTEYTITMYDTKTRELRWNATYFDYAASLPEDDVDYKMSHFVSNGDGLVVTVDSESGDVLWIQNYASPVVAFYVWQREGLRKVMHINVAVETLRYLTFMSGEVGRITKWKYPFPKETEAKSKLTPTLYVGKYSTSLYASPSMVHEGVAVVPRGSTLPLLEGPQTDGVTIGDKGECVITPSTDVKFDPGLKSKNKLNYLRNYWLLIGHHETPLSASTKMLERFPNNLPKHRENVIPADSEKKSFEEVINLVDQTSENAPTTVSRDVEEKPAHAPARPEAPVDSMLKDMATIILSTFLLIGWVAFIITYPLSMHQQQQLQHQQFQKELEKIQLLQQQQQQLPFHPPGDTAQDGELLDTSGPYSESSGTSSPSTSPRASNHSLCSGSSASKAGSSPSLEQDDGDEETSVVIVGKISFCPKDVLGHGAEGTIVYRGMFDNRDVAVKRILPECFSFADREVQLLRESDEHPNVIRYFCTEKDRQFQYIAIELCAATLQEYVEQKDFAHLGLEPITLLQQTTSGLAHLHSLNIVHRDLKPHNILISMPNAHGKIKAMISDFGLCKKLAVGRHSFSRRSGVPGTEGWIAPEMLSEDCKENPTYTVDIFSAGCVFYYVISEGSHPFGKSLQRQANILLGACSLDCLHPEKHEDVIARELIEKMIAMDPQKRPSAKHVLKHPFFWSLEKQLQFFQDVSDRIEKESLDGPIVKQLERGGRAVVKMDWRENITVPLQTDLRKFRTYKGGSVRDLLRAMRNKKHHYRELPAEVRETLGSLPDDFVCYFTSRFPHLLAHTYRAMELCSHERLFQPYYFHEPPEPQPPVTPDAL

Row | Compound | Kd
16 | CC(=O)Nc1cccc(-n2c(=O)n(C3CC3)c(=O)c3c(Nc4ccc(I)cc4F)n(C)c(=O)c(C)c32)c1 [TRAMETINIB] | > 30 µM (inactive)
17 | CN1N=C(N)c2cn([C@@H]3O[C@H](COP(=O)(O)O)[C@@H](O)[C@H]3O)c3ncnc1c23 [TRICIRIBINE PHOSPHATE] | > 30 µM (inactive)
18 | CC(C)Nc1cc(-c2c[nH]c(C(=O)N[C@H](CO)c3cccc(Cl)c3)c2)c(Cl)cn1 [ULIXERTINIB] | > 30 µM (inactive)
19 | CCn1c(=O)c(-c2cc[nH]n2)cc2c(C)nc(N)nc21 [VOXTALISIB] | > 30 µM (inactive)
20 | O=C(Nc1ccc(-c2ccnc(Nc3ccc(N4CCOCC4)cc3)n2)cc1)C1CCCN1 (stereo not given) [XL-019] | > 30 µM (inactive)

Biological target: Casein kinase II subunit alpha' (Homo sapiens, UniProt P19784)
Sequence (P19784 whole entry): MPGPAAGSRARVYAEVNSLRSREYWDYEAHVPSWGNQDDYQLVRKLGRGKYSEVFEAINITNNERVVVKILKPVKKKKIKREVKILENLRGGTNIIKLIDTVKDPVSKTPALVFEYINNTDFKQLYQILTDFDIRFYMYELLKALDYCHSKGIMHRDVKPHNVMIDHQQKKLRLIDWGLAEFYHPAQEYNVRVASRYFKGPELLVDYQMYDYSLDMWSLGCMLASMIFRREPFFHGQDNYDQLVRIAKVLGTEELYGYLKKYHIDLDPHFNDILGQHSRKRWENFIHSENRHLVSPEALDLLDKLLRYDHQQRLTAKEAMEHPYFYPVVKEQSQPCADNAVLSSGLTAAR

Row | Compound | Kd
21 | CC(=O)Nc1cccc(-n2c(=O)n(C3CC3)c(=O)c3c(Nc4ccc(I)cc4F)n(C)c(=O)c(C)c32)c1 [TRAMETINIB] | > 30 µM (inactive)
22 | CN1N=C(N)c2cn([C@@H]3O[C@H](COP(=O)(O)O)[C@@H](O)[C@H]3O)c3ncnc1c23 [TRICIRIBINE PHOSPHATE] | > 30 µM (inactive)
23 | CC(C)Nc1cc(-c2c[nH]c(C(=O)N[C@H](CO)c3cccc(Cl)c3)c2)c(Cl)cn1 [ULIXERTINIB] | > 30 µM (inactive)
24 | CCn1c(=O)c(-c2cc[nH]n2)cc2c(C)nc(N)nc21 [VOXTALISIB] | > 30 µM (inactive)
25 | O=C(Nc1ccc(-c2ccnc(Nc3ccc(N4CCOCC4)cc3)n2)cc1)C1CCCN1 (stereo not given) [XL-019] | 7.15 µM (active)

Biological target: Serine/threonine-protein kinase 26 (Homo sapiens, UniProt Q9P289)
Sequence (Q9P289 whole entry): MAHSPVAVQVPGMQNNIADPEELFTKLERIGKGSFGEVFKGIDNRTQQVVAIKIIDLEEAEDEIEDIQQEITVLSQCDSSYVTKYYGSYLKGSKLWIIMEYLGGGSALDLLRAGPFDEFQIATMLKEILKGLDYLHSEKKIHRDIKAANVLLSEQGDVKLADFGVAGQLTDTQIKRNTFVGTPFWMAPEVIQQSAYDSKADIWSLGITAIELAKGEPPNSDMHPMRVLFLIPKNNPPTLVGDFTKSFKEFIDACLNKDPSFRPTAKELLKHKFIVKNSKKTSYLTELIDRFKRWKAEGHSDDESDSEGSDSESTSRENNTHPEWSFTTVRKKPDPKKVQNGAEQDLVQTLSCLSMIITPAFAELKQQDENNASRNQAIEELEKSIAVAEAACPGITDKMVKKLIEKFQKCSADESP

Row | Compound | Kd
26 | CC(=O)Nc1cccc(-n2c(=O)n(C3CC3)c(=O)c3c(Nc4ccc(I)cc4F)n(C)c(=O)c(C)c32)c1 [TRAMETINIB] | > 30 µM (inactive)
27 | CN1N=C(N)c2cn([C@@H]3O[C@H](COP(=O)(O)O)[C@@H](O)[C@H]3O)c3ncnc1c23 [TRICIRIBINE PHOSPHATE] | > 30 µM (inactive)
28 | CC(C)Nc1cc(-c2c[nH]c(C(=O)N[C@H](CO)c3cccc(Cl)c3)c2)c(Cl)cn1 [ULIXERTINIB] | > 30 µM (inactive)
29 | CCn1c(=O)c(-c2cc[nH]n2)cc2c(C)nc(N)nc21 [VOXTALISIB] | > 30 µM (inactive)
30 | O=C(Nc1ccc(-c2ccnc(Nc3ccc(N4CCOCC4)cc3)n2)cc1)C1CCCN1 (stereo not given) [XL-019] | > 30 µM (inactive)

Biological target: T3, Probable ATP-dependent RNA helicase DDX6 (Homo sapiens, UniProt P26196)
T3 sequence (P26196 whole entry): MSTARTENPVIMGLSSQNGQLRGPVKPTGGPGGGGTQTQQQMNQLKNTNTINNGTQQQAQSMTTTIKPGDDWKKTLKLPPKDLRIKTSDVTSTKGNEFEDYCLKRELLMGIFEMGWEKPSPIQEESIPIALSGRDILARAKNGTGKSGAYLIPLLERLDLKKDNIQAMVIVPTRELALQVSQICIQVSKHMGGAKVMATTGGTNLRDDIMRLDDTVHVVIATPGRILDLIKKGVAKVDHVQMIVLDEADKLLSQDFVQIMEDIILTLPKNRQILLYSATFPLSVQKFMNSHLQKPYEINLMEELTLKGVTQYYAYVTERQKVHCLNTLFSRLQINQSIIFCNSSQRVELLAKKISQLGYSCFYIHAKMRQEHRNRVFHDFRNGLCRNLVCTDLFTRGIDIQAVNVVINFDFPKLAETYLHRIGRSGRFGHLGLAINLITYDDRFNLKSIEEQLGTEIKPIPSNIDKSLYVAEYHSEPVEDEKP

Row | Compound | Kd
31 | CC(=O)Nc1cccc(-n2c(=O)n(C3CC3)c(=O)c3c(Nc4ccc(I)cc4F)n(C)c(=O)c(C)c32)c1 [TRAMETINIB] | > 30 µM (inactive)
32 | CN1N=C(N)c2cn([C@@H]3O[C@H](COP(=O)(O)O)[C@@H](O)[C@H]3O)c3ncnc1c23 [TRICIRIBINE PHOSPHATE] | > 30 µM (inactive)
33 | CC(C)Nc1cc(-c2c[nH]c(C(=O)N[C@H](CO)c3cccc(Cl)c3)c2)c(Cl)cn1 [ULIXERTINIB] | > 30 µM (inactive)
34 | CCn1c(=O)c(-c2cc[nH]n2)cc2c(C)nc(N)nc21 [VOXTALISIB] | > 30 µM (inactive)
35 | O=C(Nc1ccc(-c2ccnc(Nc3ccc(N4CCOCC4)cc3)n2)cc1)C1CCCN1 (stereo not given) [XL-019] | > 30 µM (inactive)

Biological target: Actin-related protein 2 (Homo sapiens, UniProt P61160)

Row | Compound | Kd
36 | CC(=O)Nc1cccc(-n2c(=O)n(C3CC3)c(=O)c3c(Nc4ccc(I)cc4F)n(C)c(=O)c(C)c32)c1 [TRAMETINIB] | > 30 µM (inactive)
37 | CN1N=C(N)c2cn([C@@H]3O[C@H](COP(=O)(O)O)[C@@H](O)[C@H]3O)c3ncnc1c23 [TRICIRIBINE PHOSPHATE] | > 30 µM (inactive)
38 | CC(C)Nc1cc(-c2c[nH]c(C(=O)N[C@H](CO)c3cccc(Cl)c3)c2)c(Cl)cn1 [ULIXERTINIB] | > 30 µM (inactive)
39 | CCn1c(=O)c(-c2cc[nH]n2)cc2c(C)nc(N)nc21 [VOXTALISIB] | > 30 µM (inactive)
40 | O=C(Nc1ccc(-c2ccnc(Nc3ccc(N4CCOCC4)cc3)n2)cc1)C1CCCN1 (stereo not given) [XL-019] | > 30 µM (inactive)

Biological target: T4, Structural maintenance of chromosomes protein 1A (Homo sapiens, UniProt Q14683)
T4 sequence (Q14683 whole entry): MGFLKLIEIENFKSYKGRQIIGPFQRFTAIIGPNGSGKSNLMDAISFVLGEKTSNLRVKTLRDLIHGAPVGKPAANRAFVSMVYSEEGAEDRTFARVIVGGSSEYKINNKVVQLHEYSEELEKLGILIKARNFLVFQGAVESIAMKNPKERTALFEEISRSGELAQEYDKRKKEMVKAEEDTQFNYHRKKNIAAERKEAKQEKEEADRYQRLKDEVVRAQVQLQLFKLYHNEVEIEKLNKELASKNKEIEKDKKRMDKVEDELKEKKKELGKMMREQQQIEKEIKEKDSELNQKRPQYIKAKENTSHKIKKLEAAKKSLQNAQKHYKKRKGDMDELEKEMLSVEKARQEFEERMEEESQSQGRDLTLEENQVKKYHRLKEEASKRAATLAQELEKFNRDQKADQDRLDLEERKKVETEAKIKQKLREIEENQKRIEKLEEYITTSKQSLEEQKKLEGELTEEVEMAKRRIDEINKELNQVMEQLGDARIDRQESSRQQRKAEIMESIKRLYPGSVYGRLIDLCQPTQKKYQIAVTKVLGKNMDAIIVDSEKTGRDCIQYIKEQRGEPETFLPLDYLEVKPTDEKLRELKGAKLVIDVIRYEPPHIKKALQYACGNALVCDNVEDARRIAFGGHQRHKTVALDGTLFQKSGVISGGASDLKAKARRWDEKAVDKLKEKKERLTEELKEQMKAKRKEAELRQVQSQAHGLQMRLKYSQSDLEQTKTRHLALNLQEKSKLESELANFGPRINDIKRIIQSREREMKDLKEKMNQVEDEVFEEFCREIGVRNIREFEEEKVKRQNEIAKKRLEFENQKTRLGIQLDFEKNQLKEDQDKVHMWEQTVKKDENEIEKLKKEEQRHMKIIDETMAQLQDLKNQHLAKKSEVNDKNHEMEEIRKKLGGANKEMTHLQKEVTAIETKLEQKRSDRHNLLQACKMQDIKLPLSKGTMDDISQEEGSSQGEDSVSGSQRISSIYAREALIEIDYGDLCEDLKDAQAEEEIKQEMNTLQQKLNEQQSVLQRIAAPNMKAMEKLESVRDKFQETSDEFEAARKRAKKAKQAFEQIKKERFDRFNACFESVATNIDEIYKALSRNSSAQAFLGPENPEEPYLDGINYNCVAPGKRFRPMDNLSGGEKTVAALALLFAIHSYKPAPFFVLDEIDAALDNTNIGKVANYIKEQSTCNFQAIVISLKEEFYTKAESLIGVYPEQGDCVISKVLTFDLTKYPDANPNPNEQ

Row | Compound | Kd
41 | CC(=O)Nc1cccc(-n2c(=O)n(C3CC3)c(=O)c3c(Nc4ccc(I)cc4F)n(C)c(=O)c(C)c32)c1 [TRAMETINIB] | > 30 µM (inactive)
42 | CN1N=C(N)c2cn([C@@H]3O[C@H](COP(=O)(O)O)[C@@H](O)[C@H]3O)c3ncnc1c23 [TRICIRIBINE PHOSPHATE] | > 30 µM (inactive)
43 | CC(C)Nc1cc(-c2c[nH]c(C(=O)N[C@H](CO)c3cccc(Cl)c3)c2)c(Cl)cn1 [ULIXERTINIB] | > 30 µM (inactive)
44 | CCn1c(=O)c(-c2cc[nH]n2)cc2c(C)nc(N)nc21 [VOXTALISIB] | > 30 µM (inactive)
45 | O=C(Nc1ccc(-c2ccnc(Nc3ccc(N4CCOCC4)cc3)n2)cc1)C1CCCN1 (stereo not given) [XL-019] | > 30 µM (inactive)

Biological target: cAMP-dependent protein kinase catalytic subunit gamma (Homo sapiens, UniProt P22612)
Sequence (P22612 whole entry): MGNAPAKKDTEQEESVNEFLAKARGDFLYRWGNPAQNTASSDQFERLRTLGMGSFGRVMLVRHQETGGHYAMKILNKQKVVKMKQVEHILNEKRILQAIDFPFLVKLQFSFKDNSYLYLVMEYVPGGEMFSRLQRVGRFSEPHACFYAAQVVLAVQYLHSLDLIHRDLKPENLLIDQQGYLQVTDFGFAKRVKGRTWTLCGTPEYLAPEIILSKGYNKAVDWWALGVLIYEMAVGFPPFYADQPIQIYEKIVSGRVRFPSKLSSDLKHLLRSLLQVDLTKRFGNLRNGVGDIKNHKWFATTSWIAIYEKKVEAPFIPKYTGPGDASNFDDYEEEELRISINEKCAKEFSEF

Row | Compound | Kd
46 | CC(=O)Nc1cccc(-n2c(=O)n(C3CC3)c(=O)c3c(Nc4ccc(I)cc4F)n(C)c(=O)c(C)c32)c1 [TRAMETINIB] | > 30 µM (inactive)
47 | CN1N=C(N)c2cn([C@@H]3O[C@H](COP(=O)(O)O)[C@@H](O)[C@H]3O)c3ncnc1c23 [TRICIRIBINE PHOSPHATE] | > 30 µM (inactive)
48 | CC(C)Nc1cc(-c2c[nH]c(C(=O)N[C@H](CO)c3cccc(Cl)c3)c2)c(Cl)cn1 [ULIXERTINIB] | > 30 µM (inactive)
49 | CCn1c(=O)c(-c2cc[nH]n2)cc2c(C)nc(N)nc21 [VOXTALISIB] | > 30 µM (inactive)
50 | O=C(Nc1ccc(-c2ccnc(Nc3ccc(N4CCOCC4)cc3)n2)cc1)C1CCCN1 (stereo not given) [XL-019] | > 30 µM (inactive)
